Data from patent US20260327628A1, “AN RNA APTAMER THAT BINDS TO ASP7967 OR AN ANALOGUE THEREOF” (priority 2022, published 2026).
pEC50: −log10 of the molar value. Entries after “also recorded” stand apart in the source; their conditions may differ.

Legend:
[1] = tested on: a8-AC17-4-CPP riboswitch (EGFP expression in HEK293 cells); assay: Riboswitch assay in HEK293 cells, a8-AC17-4-CPP, ligand response; format: cell-based; settings: for fold induction at 5 µM: 48 h, 5 μM ligand, HEK293 cells, read-out: activation of EGFP / gene expression (ON/OFF)
Method: HEK293 cells were cultured in Dulbecco's modified Eagle's medium (DMEM) supplemented with 10% heat-inactivated FBS (Gibco) containing 2 mM L-glutamine and 100 units ml^−1 of penicillin-streptomycin (DMEM-FBS). Cells were kept in a 37° C. incubator with 5% CO2 and passaged regularly upon reaching 90% confluency. Approximately 20 h prior to transfection, the cells were trypsinized, diluted to ~2.7×10^5 cells ml^−1 and 100 μl per well were seeded onto a 96-well plate. Cells in each well were cotransfected with 100 ng of the EGFP-aptazyme plasmid and 20 ng of pCMV-mCherry^27 (transfection control) using 0.3 μl of TransIT-293 Transfection Reagent (Mirus) according to the manufacturer's instructions. Five hours after transfection, the medium in each well was replaced with fresh medium with (up to 5 μM) or without ASP2905 or ASP7967. The aptamer ligands were dissolved at 1000× concentration in DMSO. Forty-eight hours after transfection, the medium in each well was replaced with 100 μl of phosphate buffered saline (PBS), and fluorescence intensity was measured by Infinite M1000 PRO microplate reader (Tecan). Fluorescence intensity was measured at 484 nm excitation/510 nm emission/5 nm bandwidth for EGFP, and at 587 nm excitation/610 nm emission/10 nm bandwidth for mCherry. Background fluorescence measured using untransfected cells was subtracted from the EGFP and mCherry fluorescence values. Then, EGFP fluorescence was normalized by mCherry fluorescence to account for variations in transfection efficiency and cell counts. All reported values are averages of three replicate wells.
The anti-Rz sequence was varied from 6 to 10 nucleotides, and the aptazyme was inserted in the 3′ UTR of the EGFP transcript.
The EGFP-riboswitch plasmid and an mCherry-expressing plasmid (transfection control) were cotransfected into HEK293 cells in the absence or presence (5 μM) of ASP2905 or ASP7967. EGFP and mCherry fluorescence was measured two days after transfection, and EGFP fluorescence was normalized by mCherry fluorescence to account for variability in transfection efficiency. […] We attribute this to the coincidental complementarity of the nucleotides preceding anti-Rz (CA) to the ribozyme sequence, making the effective anti-Rz sequence length longer than intended.
The riboswitch a8-AC17-4-CPP was further analyzed for the dose dependent response to ASP7967 (FIG. 6d).

[2] = tested on: HEK293 cells; assay: MTT (cell proliferation) assay; format: cell-based; settings: up to 10 μM, 18 h
Method: MTT assay was performed using MTT Cell Count Kit (Nacalai Tesque). HEK293 cells were trypsinized, diluted to 2.4×10^5 cells ml^−1 and 100 μl per well were seeded onto a 96-well plate. The cells were cultured for 24 h at 37° C. under 5% CO2. The medium was replaced with fresh medium (DMEM-FBS with 0.1% (v/v) DMSO) with 0, 2, 5, or 10 μM of ASP2905 or ASP7967. The cells were cultured for additional 18 h at 37° C. under 5% CO2. Subsequently, 10 μl of MTT solution was added to each well, and the cells were incubated for 3 h at 37° C. under 5% CO2. Next, 100 μl of the Solubilization Solution was added to each well. To dissolve the precipitated formazan, the plate was incubated for 2 h at 37° C. Absorbance at 570 nm (reference wavelength: 700 nm) was measured by Infinite M1000 PRO microplate reader (Tecan). The reported values are averages of four replicate wells. The assay was repeated three times to ensure reproducibility.

Row | Compound | ASP7967 concentration at which riboswitch response mostly saturated [1] [µM] | fold induction at 5 µM ([1]; Homo sapiens) | pEC50 ([1]; Homo sapiens, HEK293, dose dependent response) | effect on cell proliferation / cellular toxicity [2] | effect on cell proliferation / cellular toxicity ([2]; listed as ASP2095)
1 | Fc1ccc(Nc2nc(NCc3ncccn3)nc(Nc3ccc(F)cc3)n2)cc1 [ASP7967] | 5 | ~10 | ~5.96 | not significantly affected; also recorded: No cellular toxicity up to 10 μM was observed; also recorded: not cytotoxic | –
2 | Fc1ccc(Nc2nc(NCc3ncccn3)nc(Nc3ccccc3)n2)cc1 [ASP2905, reference compound] | – | ~10 | – | not significantly affected | No cellular toxicity up to 10 μM was observed; also recorded: not cytotoxic
